For 18 compounds, IC50 results are on record in US11384099B2, “Pyrazolopyridinone compounds” (Janssen Pharmaceutica NV, priority 2017, dated 2022).

Assay [1] deals with T1, human FGFR3 V555M enzyme (cytoplasmic domain carrying V555M mutation) (Homo sapiens, UniProt P22607, V555M).
T1 construct: cytoplasmic domain carrying V555M mutation, from Carna Biosciences; purchased Carna Biosciences
The assay is described as follows: FGFR3 V555M mobility shift assay (enzymatic assay, Caliper). Type of assay: biochemical. Particulars: 30 μM ATP, 45 minutes at 30° C. On the procedure: FGFR3 V555M Mobility Shift Assay (Enzymatic Assay)
In a final reaction volume of 25 μL, 0.04 ng/μL human FGFR3 V555M enzyme (cytoplasmic domain carrying V555M mutation, from Carna Biosciences) was incubated with 30 μM ATP, 1 μM FL-peptide 30 substrate and 250 nL of testing compound (1% DMSO final) in assay buffer (100 mM HEPES pH 7.4, 10 mM MgCl2, 0.003% Brij35, 1 mM DTT). After incubation for 45 minutes at 30° C. the reaction was stopped with 10 μL of 0.5M EDTA pH 8.0, and then L of reaction mixture was transferred to reading plate and measured on Caliper EZ reader II.

In assay [2] the target is T2, human FGFR3 wild type enzyme (cytoplasmic domain) (Homo sapiens, UniProt P22607).
T2 construct: human FGFR3 wild type enzyme (cytoplasmic domain, from Cama Biosciences); purchased Carna Biosciences
T2 sequence (P22607 397-806 limits assumed): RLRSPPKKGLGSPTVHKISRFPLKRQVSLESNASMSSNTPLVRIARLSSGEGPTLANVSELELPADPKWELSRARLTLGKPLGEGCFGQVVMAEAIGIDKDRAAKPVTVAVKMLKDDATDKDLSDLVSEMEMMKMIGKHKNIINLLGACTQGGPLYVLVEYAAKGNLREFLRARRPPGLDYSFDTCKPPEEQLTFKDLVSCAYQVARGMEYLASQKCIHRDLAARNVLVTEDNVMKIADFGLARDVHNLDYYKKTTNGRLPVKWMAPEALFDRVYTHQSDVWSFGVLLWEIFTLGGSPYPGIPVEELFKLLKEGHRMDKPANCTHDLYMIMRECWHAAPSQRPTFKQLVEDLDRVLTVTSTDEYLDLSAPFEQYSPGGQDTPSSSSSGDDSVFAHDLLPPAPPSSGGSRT
The assay is described as follows: FGFR3 wild type mobility shift assay (enzymatic assay, Caliper). Type of assay: biochemical. Particulars: 75 μM ATP, 50 minutes at 30° C. On the procedure:
FGFR3 Wild Type Mobility Shift Assay (Enzymatic Assay)
In a final reaction volume of 25 μL, 0.04 ng/μL human FGFR3 wild type enzyme (cytoplasmic domain, from Cama Biosciences) was incubated with 75 μM ATP, 1 μM FL-peptide 30 substrate and 250 nL of testing compound (1% DMSO final) in assay buffer (100 mM HEPES pH 7.4, 10 mM MgCl2, 0.003% Brij35, 1 mM DTT). After incubation for 50 minutes at 30° C. the reaction was stopped with 10 μL of 0.5M EDTA pH 8.0, and then L of reaction mixture was transferred to reading plate and measured on Caliper EZ reader II.

The test system of assay [3] is NIH/3T3 cells transfected with control vector (MOCK). As to the kind of experiment: NIH/3T3 mock cell proliferation assay (CTG, counter assay). Conditions: Mus musculus, NIH3T3; 72-hr incubation, CellTiter Glo; counter assay for general toxicity. Type of assay: cell-based. Here is the method:
NIH/3T3 Mock Cell Proliferation Assay
In day 1, 90 μL of cell suspension (NIH/3T3 cells transfected with the same control vector as in the above two proliferation assays) (total 30,000 cells per well in growth medium (DMEM containing 1% Glutamax, 10% FBS and 1% Pen/Strep)) was seeded in a 96-well plate and then incubated overnight at 37° C. and 5% CO2. In day 2, 10 μL of growth medium containing 10-fold stock solution of testing compound was added into cell cultures (9 dose points with 3× serial dilution, starting with 30 μM, 0.3% DMSO final). After 72-hr incubation at 37° C. and 5% CO2, in day 5 a volume of 50 μL CellTiter Glo (CTG) reagent was added into cell-containing 96-well plate and the plate was incubated at room temperature for 10 minutes before RLUs (relative light unit) were measured on a microplate reader with luminescence detection module. The RLU value was normalized to survival % and concentration-response curve was plotted using Prism to calculate IC50 (M), pIC50 (−log IC50) and HillSlope value.
(In ATP-based viability assays light output follows the ATP content of the culture.)

T1 sequence (P22607 397-806 V555M limits assumed): as the sequence (P22607 397-806 limits assumed) above, with V159M counted along it

What is called IC50 is the concentration that gives 50% inhibition. As to `CCC(Nc1c(-c2nc3ccc(OC)cc3[nH]2)c(=O)[nH]c2cn(C)nc12)c1ncccn1` (single isomer, unassigned) [Compound 17, (R*)-6-(6-Methoxy-1H-benzo[d]imidazol-2-yl)-2-methyl-7-((1-(pyrimidin-2-yl)propyl)-amino)-2H-pyrazolo[4,3-b]pyridin-5 (4H)-one], the IC50 in assay [1] turned out to be 0.957 nM; in assay [2], 4.87 nM; in assay [3] it was 959 nM.

`CCn1cc2[nH]c(=O)c(-c3nc4cc(OC)c(OC)cc4[nH]3)c(N[C@@H](C)c3ncccn3)c2n1` [Compound 6, (S)-6-(5,6-Dimethoxy-1H-benzo[d]imidazol-2-yl)-2-ethyl-7-((1-(pyrimidin-2-yl)ethyl)-amino)-2H-pyrazolo[4,3-b]pyridin-5 (4H)-one]: the IC50 amounted to 0.673 nM in assay [1], 1.83 nM in assay [2] and 800 nM in assay [3].

In the case of `COc1cc(OC)c2nc(-c3c(N[C@@H](C)c4ncccn4)c4nn(C)cc4[nH]c3=O)[nH]c2c1` [Compound 29, (S)-6-(4,6-Dimethoxy-1H-benzo[d]imidazol-2-yl)-2-methyl-7-((1-(pyrimidin-2-yl)ethyl)-amino)-2H-pyrazolo[4,3-b]pyridin-5 (4H)-one], the IC50 in assay [1] stood at 0.517 nM; in assay [2] it was 1.89 nM; in assay [3], 809 nM.

Take `COc1cnc2nc(-c3c(N[C@@H](C)c4ncccn4)c4nn(C)cc4[nH]c3=O)[nH]c2c1` [Compound 3, (S)-6-(6-methoxy-1H-imidazo[4,5-b]pyridin-2-yl)-2-methyl-7-((1-(pyrimidin-2-yl)-ethyl)amino)-2H-pyrazolo[4,3-b]pyridin-5 (4H)-one]: the IC50 in assay [1] was 0.361 nM; in assay [2], 1.67 nM; in assay [3], 776 nM.

For `COc1cc2[nH]c(-c3c(N[C@@H](C)c4ncccn4)c4nn(C)cc4[nH]c3=O)nc2cn1` [Compound 30, (S)-6-(6-methoxy-1H-imidazo[4,5-c]pyridin-2-yl)-2-methyl-7-((1-(pyrimidin-2-yl)ethyl)-amino)-2H-pyrazolo[4,3-b]pyridin-5 (4H)-one], the IC50 turned out to be 0.414 nM in assay [1], 1.13 nM in assay [2] and 1200 nM in assay [3].

Consider `CCC(Nc1c(-c2nc3cc(OC)c(OC)cc3[nH]2)c(=O)[nH]c2cn(CC)nc12)c1ncccn1` (single isomer, unassigned) [Compound 44, (S*)-6-(5,6-dimethoxy-1H-benzo[d]imidazol-2-yl)-2-ethyl-7-((1-(pyrimidin-2-yl)propyl)-amino)-2H-pyrazolo[4,3-b]pyridin-5 (4H)-one], for which the IC50 in assay [1] turned out to be 1.17 nM; in assay [2], 3.1 nM; in assay [3] it was 2300 nM.

`COCC(Nc1c(-c2nc3ccc(OC)cc3[nH]2)c(=O)[nH]c2cn(C)nc12)c1ncccn1` (single isomer, unassigned) [Compound 12, (S*)-7-((2-methoxy-1-(pyrimidin-2-yl)ethyl)amino)-6-(6-methoxy-1H-benzo[d]imidazol-2-yl)-2-methyl-2H-pyrazolo[4,3-b]pyridin-5 (4H)-one]: the results for the IC50 in assay [1], in assay [2] and in assay [3] were 4.25 nM, 18 nM and 1500 nM, respectively.

Take `CCOc1cc2nc(-c3c(N[C@@H](C)c4ncccn4)c4nn(C)cc4[nH]c3=O)[nH]c2cc1OCC` [Compound 53, (S)-6-(5,6-diethoxy-1H-benzo[d]imidazol-2-yl)-2-methyl-7-((1-(pyrimidin-2-yl)ethyl)-amino)-2,4-dihydro-5H-pyrazolo[4,3-b]pyridin-5-one]: the IC50 in assay [1] amounted to 0.298 nM; in assay [2], 0.554 nM; in assay [3], 535 nM.

As to `CCn1cc2[nH]c(=O)c(-c3nc4c(F)c(OC)c(OC)cc4[nH]3)c(N[C@@H](C)c3ncccn3)c2n1` [Compound 41, (S)-2-ethyl-6-(4-fluoro-5,6-dimethoxy-1H-benzo[d]imidazol-2-yl)-7-((1-(pyrimidin-2-yl)-ethyl)amino)-2H-pyrazolo[4,3-b]pyridin-5 (4H)-one], the figures for the IC50 in assay [1], in assay [2] and in assay [3] were 1.11 nM, 3.8 nM and 2280 nM, respectively.

As for `COc1cnc2nc(-c3c(NC(c4ncccn4)C(C)C)c4nn(C)cc4[nH]c3=O)[nH]c2c1` (single isomer, unassigned) [Compound 40, (S*)-6-(6-methoxy-1H-imidazo[4,5-b]pyridin-2-yl)-2-methyl-7-((2-methyl-1-(pyrimidin-2-yl)propyl)amino)-2,4-dihydro-5H-pyrazolo[4,3-b]pyridin-5-one], the IC50 in assay [1] was 0.743 nM; in assay [2] it was 5.93 nM; in assay [3] it was 1740 nM.

On to `CCn1cc2[nH]c(=O)c(-c3nc4ccc(OC)cc4[nH]3)c(N[C@@H](C)c3ncccn3)c2n1` [Compound 4, (S)-2-ethyl-6-(6-methoxy-1H-benzo[d]imidazol-2-yl)-7-((1-(pyrimidin-2-yl)ethyl)amino)-2H-pyrazolo[4,3-b]pyridin-5 (4H)-one], for which the IC50 in assay [1] was 0.998 nM; in assay [2], 3.36 nM; in assay [3], 735 nM.

Take `COc1cc2[nH]c(-c3c(NC(c4ncccn4)C(C)C)c4nn(C)cc4[nH]c3=O)nc2cn1` (single isomer, unassigned) [Compound 18, (S*)-6-(6-methoxy-1H-imidazo[4,5-c]pyridin-2-yl)-2-methyl-7-((2-methyl-1-(pyrimidin-2-yl)propyl)amino)-2H-pyrazolo[4,3-b]pyridin-5 (4H)-one]: the IC50 is 1.69 nM in assay [1], 8.51 nM in assay [2] and 3120 nM in assay [3].

As to `CC[C@H](Nc1c(-c2nc3cnc(N(C)C)cc3[nH]2)c(=O)[nH]c2cn(C)nc12)c1ncccn1` [Compound 22, (S)-6-(6-(dimethylamino)-1H-imidazo[4,5-c]pyridin-2-yl)-2-methyl-7-((1-(pyrimidin-2-yl)propyl)amino)-2H-pyrazolo[4,3-b]pyridin-5 (4H)-one], the values for the IC50 in assay [1], in assay [2] and in assay [3] were 0.743 nM, 3.62 nM and 1250 nM, respectively.

As for `CC(C)[C@H](Nc1c(-c2nc3cnc(N(C)C)cc3[nH]2)c(=O)[nH]c2cn(C)nc12)c1ncccn1` (single isomer, unassigned) [Compound 11, (S*)-6-(6-(dimethylamino)-1H-imidazo[4,5-c]pyridin-2-yl)-2-methyl-7-((2-methyl-1-(pyrimidin-2-yl)propyl)amino)-2H-pyrazolo[4,3-b]pyridin-5 (4H)-one], the IC50 in assay [3] is 1840 nM.

Turning to `COc1cc2nc(-c3c(NC(c4ncccn4)C4CC4)c4nn(C)cc4[nH]c3=O)[nH]c2cc1OC` (single isomer, unassigned) [Compound 46, (S*)-7-((cyclopropyl(pyrimidin-2-yl)methyl)amino)-6-(5,6-dimethoxy-1H-benzo[d]-imidazol-2-yl)-2-methyl-2H-pyrazolo[4,3-b]pyridin-5 (4H)-one], the IC50 is 0.566 nM in assay [1], 2.44 nM in assay [2] and 682 nM in assay [3].

In assay [3], `COc1ccc2[nH]c(-c3c(NC(c4ncccn4)C(C)C)c4nn(C)cc4[nH]c3=O)nc2c1` (single isomer, unassigned) [Compound 15, (S*)-6-(5-Methoxy-1H-benzo[d]imidazol-2-yl)-2-methyl-7-((2-methyl-1-(pyrimidin-2-yl)-propyl)amino)-2H-pyrazolo[4,3-b]pyridin-5 (4H)-one] came in with an IC50 of 1340 nM.

On to `CC(C)C(Nc1c(-c2nc3cnccc3[nH]2)c(=O)[nH]c2cn(C)nc12)c1ncccn1` (single isomer, unassigned) [Compound 24, (S*)-6-(1H-imidazo[4,5-c]pyridin-2-yl)-2-methyl-7-((2-methyl-1-(pyrimidin-2-yl)propyl)-amino)-2H-pyrazolo[4,3-b]pyridin-5 (4H)-one], for which inhibition in assay [3] was half-maximal at 3010 nM (IC50).

Regarding `COc1cc2nc(-c3c(N[C@H](c4ncccn4)C(C)C)c4nn(C)cc4[nH]c3=O)[nH]c2cc1OC` (single isomer, unassigned) [Compound 27, (S*)-6-(5,6-dimethoxy-H-benzo[d]imidazol-2-yl)-2-methyl-7-((2-methyl-1-(pyrimidin-2-yl)propyl)amino)-2H-pyrazolo[4,3-b]pyridin-5 (4H)-one], the concentration for half-maximal inhibition (IC50) in assay [3] is 722 nM.
